Experimental data from patent US12492181B2, “Gem-disubstituted piperidine melanocortin subtype-2 receptor (MC2R) antagonists and uses thereof” (Crinetics Pharmaceuticals, Inc., priority 2019, dated 2025).

target: T1, hMC2 receptor (crude hMC2R membranes from CRE-bla-CHO-K1 cells stably expressing hMC2 receptor and hMRAP accessory protein) (Homo sapiens, UniProt Q01718); assay: hMC2 membrane binding assay ([125I]ACTH (1-39) Tyr23, SPA); details: displacement of 0.2 nM [125I]ACTH (1-39) Tyr23 from hMC2R membranes, 1.5 hours at room temperature; read-out: MC2R binding potency
T1 construct: crude membrane fractions
In short: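 Crude membranes from CRE-bla-CHO-K1 cells stably co-expressing hMC2R and hMRAP, premixed with WGA PVT SPA beads in pH 7.4 HEPES buffer (5 mM MgCl2, 1 mM CaCl2, 0.20% BSA, protease inhibitors). Compounds compete with [125I]ACTH(1-39) Tyr23, read by scintillation. Ki from non-linear regression.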

T1 sequence (Q01718 whole entry): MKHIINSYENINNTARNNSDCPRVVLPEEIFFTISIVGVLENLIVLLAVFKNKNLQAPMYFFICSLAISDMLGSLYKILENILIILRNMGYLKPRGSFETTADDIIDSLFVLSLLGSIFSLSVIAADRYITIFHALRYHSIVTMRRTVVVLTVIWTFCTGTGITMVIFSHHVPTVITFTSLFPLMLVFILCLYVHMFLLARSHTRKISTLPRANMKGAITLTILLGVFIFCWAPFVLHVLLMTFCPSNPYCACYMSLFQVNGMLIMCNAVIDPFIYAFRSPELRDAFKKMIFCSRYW
T1 sequence (Q8TCY5 whole entry partner): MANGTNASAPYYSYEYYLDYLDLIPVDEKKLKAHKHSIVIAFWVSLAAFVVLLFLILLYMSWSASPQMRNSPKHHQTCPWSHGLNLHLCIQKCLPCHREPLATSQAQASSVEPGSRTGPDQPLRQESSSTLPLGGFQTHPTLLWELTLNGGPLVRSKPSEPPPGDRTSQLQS

Ki | SMILES
< 10 nM | COc1ccc(F)cc1-c1ncc(C2(C(=O)N[C@H]3CCN(C)C3)CCN(c3ccc(C(F)(F)F)cc3C#N)CC2)cc1F [Compound 1-195, 1-[2-cyano-4-(trifluoromethyl)phenyl]-4-[5-fluoro-6-(5-fluoro-2-methoxyphenyl)pyridin-3-yl]-N-[(3S)-1-methylpyrrolidin-3-yl]piperidine-4-carboxamide]
< 10 nM | COc1ncccc1-c1ccc(C2(C(=O)NCCN(C)C)CCN(c3ccc(C(F)(F)F)cc3F)CC2)cn1 [Compound 1-271, N-[2-(dimethylamino)ethyl]-1-[2-fluoro-4-(trifluoromethyl)phenyl]-4-{2′-methoxy-[2,3′-bipyridin]-5-yl}piperidine-4-carboxamide]
< 10 nM | CCOc1ncccc1-c1ccc(C2(C(=O)N[C@@H]3CCN(C)C3)CCN(c3ccc(C(F)(F)F)cc3C#N)CC2)cc1 [Compound 1-1, 1-[2-cyano-4-(trifluoromethyl)phenyl]-4-[4-(2-ethoxypyridin-3-yl)phenyl]-N-[(3R)-1-methylpyrrolidin-3-yl]piperidine-4-carboxamide]
< 10 nM | CCOc1ccccc1-c1ccc(C2(C(=O)NC3CN(C)C3)CCN(c3ccc(C(F)(F)F)cc3C#N)CC2)cn1 [Compound 1-76, 1-[2-cyano-4-(trifluoromethyl)phenyl]-4-[6-(2-ethoxyphenyl)pyridin-3-yl]-N-(1-methylazetidin-3-yl)piperidine-4-carboxamide]
